# From patent publication US11352340B2, “Pyridine and pyridimine compounds as PI3K-gamma inhibitors” (Incyte Corporation, priority 2016, dated 2022)
# Where a name gives a salt, the structure may show the parent alone. Read-outs that look alike come from different tables or passages of the source.
# Experiments:
# [1] = biological target: PI3Kδ (p110δ/p85α) Recombinant Human Protein (Homo sapiens (Human), UniProt O00329); test: PI3Kδ Scintillation Proximity Assay; format: biochemical; settings: read-out: PI3K-delta SPA IC50
# PI3Kδ (p110δ/p85α) Recombinant Human Protein, sequence (O00329 whole entry): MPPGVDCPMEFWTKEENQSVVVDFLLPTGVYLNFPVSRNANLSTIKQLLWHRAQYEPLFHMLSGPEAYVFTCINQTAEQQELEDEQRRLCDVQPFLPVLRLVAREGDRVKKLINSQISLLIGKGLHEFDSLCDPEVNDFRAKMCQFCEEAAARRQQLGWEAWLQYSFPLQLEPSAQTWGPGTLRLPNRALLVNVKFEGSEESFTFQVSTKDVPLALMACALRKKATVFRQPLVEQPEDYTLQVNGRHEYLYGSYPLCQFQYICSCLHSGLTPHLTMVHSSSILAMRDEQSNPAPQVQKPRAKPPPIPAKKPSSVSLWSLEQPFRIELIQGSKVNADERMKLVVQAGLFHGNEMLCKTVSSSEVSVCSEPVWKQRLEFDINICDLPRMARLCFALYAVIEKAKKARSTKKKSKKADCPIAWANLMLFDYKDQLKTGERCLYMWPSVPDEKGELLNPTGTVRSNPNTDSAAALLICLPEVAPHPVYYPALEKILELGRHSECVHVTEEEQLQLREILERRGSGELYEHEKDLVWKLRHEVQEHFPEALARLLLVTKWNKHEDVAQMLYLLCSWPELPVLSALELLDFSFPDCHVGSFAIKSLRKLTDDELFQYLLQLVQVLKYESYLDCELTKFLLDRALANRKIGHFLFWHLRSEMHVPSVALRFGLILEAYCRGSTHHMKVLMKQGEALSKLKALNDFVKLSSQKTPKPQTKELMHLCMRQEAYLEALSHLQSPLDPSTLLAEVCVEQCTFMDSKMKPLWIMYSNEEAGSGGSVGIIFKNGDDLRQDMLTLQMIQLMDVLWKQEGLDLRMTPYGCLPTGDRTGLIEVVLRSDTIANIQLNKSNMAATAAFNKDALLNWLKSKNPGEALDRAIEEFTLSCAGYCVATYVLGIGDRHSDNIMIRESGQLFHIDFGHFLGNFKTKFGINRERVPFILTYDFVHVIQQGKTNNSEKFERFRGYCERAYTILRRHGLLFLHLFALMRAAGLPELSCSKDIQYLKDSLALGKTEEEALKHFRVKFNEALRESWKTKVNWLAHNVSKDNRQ
# PI3Kδ (p110δ/p85α) Recombinant Human Protein, sequence (P27986 whole entry partner): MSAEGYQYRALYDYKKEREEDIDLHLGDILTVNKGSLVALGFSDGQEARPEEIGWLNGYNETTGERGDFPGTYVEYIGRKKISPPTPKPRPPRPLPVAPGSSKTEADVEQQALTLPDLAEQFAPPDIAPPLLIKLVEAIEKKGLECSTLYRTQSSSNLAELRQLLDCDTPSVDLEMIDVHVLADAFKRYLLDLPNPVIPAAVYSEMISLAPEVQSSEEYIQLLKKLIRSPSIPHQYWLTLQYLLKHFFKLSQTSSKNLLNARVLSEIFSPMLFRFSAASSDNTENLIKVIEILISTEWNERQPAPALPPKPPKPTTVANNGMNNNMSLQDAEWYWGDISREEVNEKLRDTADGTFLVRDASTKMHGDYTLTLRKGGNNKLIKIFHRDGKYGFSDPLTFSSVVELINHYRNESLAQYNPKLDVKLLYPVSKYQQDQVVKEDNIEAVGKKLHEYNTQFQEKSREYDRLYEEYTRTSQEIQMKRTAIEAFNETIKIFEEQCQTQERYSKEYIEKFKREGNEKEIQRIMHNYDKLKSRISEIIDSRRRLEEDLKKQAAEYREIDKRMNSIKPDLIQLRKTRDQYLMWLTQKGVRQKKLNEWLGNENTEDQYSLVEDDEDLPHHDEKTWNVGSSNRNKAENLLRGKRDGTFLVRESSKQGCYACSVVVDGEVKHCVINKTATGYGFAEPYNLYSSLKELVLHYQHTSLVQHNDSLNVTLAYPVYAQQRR
# Outline: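 Assay conditions: 2 μM ATP (radiolabelled), 20 μM PIP2, 3.4 nM PI3Kδ, 20 mM MOPS pH 6.7 with 10 mM MgCl2, 5 mM DTT, 0.03% CHAPS, 2 h at room temperature. Signal from bead-captured 33P product; IC50 versus solvent control.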
# [2] = test system: Phosphorylated Ribosomal Protein S6 (RPS6) in THP-1 cells; test: THP-1 RPS6 ELISA Assay; format: cell-based, Human; settings: MCP-1 stimulated, phospho-RPS6 ELISA, read-out: THP p-RPS6 ELISA IC50
# Protocol: Example A. THP-1 RPS6 ELISA Assay
# To measure the Phosphorylated Ribosomal Protein S6 (RPS6) in cell lysates, THP-1 cells (Human Acute Monocytic Leukemia) are purchased from ATCC (Manassas, Va.) and maintained in RPMI with 10% FBS (Gibco/Life Technologies, Carlsbad, Calif.). For the assay, THP-1 cells are serum starved overnight in RPMI, then plated in RPMI (2×10^5 cells/well in 90 μL) into 96-well flat-bottom tissue culture treated plates (Corning, Corning, N.Y.), in the presence or absence of a concentration range of test compounds. Covered plates are incubated for 2 hours at 37° C., 5% CO2 then treated with or without 10 nM MCP-1 (MYBioSource, San Diego, Calif.) for 15 minutes at 37° C., 5% CO2. Plates are centrifuged at 1600 RPM and supernatants are removed. Cells are lysed in Lysis Buffer (Cell Signaling, Danvers, Mass.) with Protease Inhibitor (Calbiochem/EMD, Germany), PMSF (Sigma, St Louis Mo.), HALTS (Thermo Fisher, Rockford, Ill.) for 30 min on wet ice. Cell lysates are frozen at −80° C. before testing. The lysates are tested in the Human/Mouse/Rat Phospho-RPS6 ELISA (R&D Systems, Inc. Minn, Minn.). The plate is measured using a microplate reader (SpectraMax M5—Molecular Devices, LLC Sunnyvale, Calif.) set to 450 nm with a wavelength correction of 540. IC50 determination is performed by fitting the curve of inhibitor percent inhibition versus the log of the inhibitor concentration using the GraphPad Prism 5.0 software.
# [3] = biological target: PI3Kγ (p110γ) Recombinant Human Protein (Homo sapiens (Human), UniProt P48736); test: PI3K-γ Scintillation Proximity Assay; format: biochemical; settings: read-out: PI3K-gamma SPA IC50
# PI3Kγ (p110γ) Recombinant Human Protein, sequence (P48736 whole entry): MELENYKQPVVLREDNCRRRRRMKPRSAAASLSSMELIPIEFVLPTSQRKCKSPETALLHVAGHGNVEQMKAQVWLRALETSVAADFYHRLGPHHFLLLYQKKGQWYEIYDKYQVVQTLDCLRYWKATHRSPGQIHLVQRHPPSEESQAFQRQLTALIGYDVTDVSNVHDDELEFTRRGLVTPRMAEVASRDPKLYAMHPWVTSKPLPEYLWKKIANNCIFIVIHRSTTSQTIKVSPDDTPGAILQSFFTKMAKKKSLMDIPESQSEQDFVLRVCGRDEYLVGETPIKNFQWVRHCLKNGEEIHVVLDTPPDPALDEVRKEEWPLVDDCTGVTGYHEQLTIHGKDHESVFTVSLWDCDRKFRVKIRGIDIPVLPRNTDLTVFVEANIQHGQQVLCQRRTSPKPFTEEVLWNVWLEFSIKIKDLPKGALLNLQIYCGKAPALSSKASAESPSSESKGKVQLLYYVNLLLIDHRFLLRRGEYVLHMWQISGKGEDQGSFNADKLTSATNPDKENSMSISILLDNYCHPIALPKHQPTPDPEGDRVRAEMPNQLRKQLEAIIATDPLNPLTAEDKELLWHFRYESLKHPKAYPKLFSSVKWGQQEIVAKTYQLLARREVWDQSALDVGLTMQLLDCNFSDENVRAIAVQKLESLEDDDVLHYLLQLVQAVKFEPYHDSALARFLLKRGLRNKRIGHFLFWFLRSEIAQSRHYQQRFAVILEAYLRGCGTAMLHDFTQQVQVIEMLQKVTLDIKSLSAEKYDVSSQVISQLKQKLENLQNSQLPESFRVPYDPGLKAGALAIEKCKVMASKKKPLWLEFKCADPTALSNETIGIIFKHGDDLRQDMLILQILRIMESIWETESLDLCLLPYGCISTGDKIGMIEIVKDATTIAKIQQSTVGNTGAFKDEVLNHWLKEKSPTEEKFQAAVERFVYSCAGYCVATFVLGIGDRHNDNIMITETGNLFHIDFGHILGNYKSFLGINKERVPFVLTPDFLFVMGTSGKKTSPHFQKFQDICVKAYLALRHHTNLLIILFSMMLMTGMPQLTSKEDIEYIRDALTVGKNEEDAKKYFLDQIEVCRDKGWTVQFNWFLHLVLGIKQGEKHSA
# Outline: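 Radiometric SPA: reaction at room temperature for 120 min using 2 μM ATP with [γ-33P]ATP tracer, 20 μM PIP2 substrate and 13 nM human PI3Kγ (MOPS pH 6.7, MgCl2, DTT, CHAPS; 2% DMSO). EDTA quench with WGA beads, scintillation count, and IC50 fit of percent-of-control activity.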
IC50 [1] [nM],IC50 ([2]; Homo sapiens) [nM],IC50 [3] [nM],SMILES,IC50 [2] [nM]
≤ 500,1000 to 5000,≤ 50,"Cc1nc(-c2cc(-c3cncc(Nc4ccccc4)c3)ccn2)[nH]c1C [Example 233, 2′-(4,5-Dimethyl-1H-imidazol-2-yl)-N-phenyl-3,4′-bipyridin-5-amine]",
≤ 50,≤ 300,≤ 50,"Cc1nc(-c2cc(-c3cncc(NCC4CCOC4)c3)ccn2)[nH]c1C (racemic) [Example 145B, 2′-(4,5-Dimethyl-1H-imidazol-2-yl)-N-(tetrahydrofuran-3-ylmethyl)-3,4′-bipyridin-5-amine]",
≤ 50,300 to 1000,≤ 100,"CCOC(=O)c1nc(-c2cc(-c3cncc(S(C)(=O)=O)c3)ccn2)[nH]c1C [Example 241, Ethyl 5-methyl-2-[5-(methylsulfonyl)-3,4′-bipyridin-2′-yl]-1H-imidazole-4-carboxylate]",
≤ 100,≤ 300,≤ 100,"Cc1nc(-c2cc(-c3cncc(N4CCOCC4)c3)ccn2)[nH]c1C [Example 98, 4-(2′-(4,5-Dimethyl-1H-imidazol-2-yl)-3,4′-bipyridin-5-yl)morpholine trifluoroacetate salt]",
≤ 50,≤ 300,≤ 50,"Cc1nc(-c2cc(-c3cncc(C(=O)N(C)c4ccccc4)c3)ccn2)[nH]c1C [Example 194, 2′-(4,5-Dimethyl-1H-imidazol-2-yl)-N-methyl-N-phenyl-3,4′-bipyridine-5-carboxamide trifluoroacetate salt]",
≤ 50,≤ 300,≤ 50,"Cc1[nH]c(-c2cc(-c3cncc(N4CCOCC4)c3)ccn2)nc1C(=O)NC(C)(C)C [Example 266, N-(tert-Butyl)-5-methyl-2-(5-morpholin-4-yl-3,4′-bipyridin-2′-yl)-1H-imidazole-4-carboxamide]",
≤ 100,300 to 1000,≤ 50,"Cc1nc(-c2cc(-c3cncc(C(=O)N4CCCCC4C)c3)ccn2)[nH]c1C (racemic) [Example 190, 2′-(4,5-Dimethyl-1H-imidazol-2-yl)-5-[(2-methylpiperidin-1-yl)carbonyl]-3,4′-bipyridine trifluoroacetate salt]",
≤ 50,≤ 300,≤ 50,"Cc1[nH]c(-c2cc(-c3cncc(N4CCOCC4)c3)ccn2)nc1C(=O)NC1CCCC1 [Example 258, N-Cyclopentyl-5-methyl-2-(5-morpholin-4-yl-3,4′-bipyridin-2′-yl)-1H-imidazole-4-carboxamide]",
≤ 50,≤ 300,≤ 50,"Cc1nc(-c2cc(-c3cncc(C(=O)N4CCC(C(F)(F)F)C4)c3)ccn2)[nH]c1C (racemic) [Example 178, 2′-(4,5-Dimethyl-1H-imidazol-2-yl)-5-{[3-(trifluoromethyl)pyrrolidin-1-yl]carbonyl}-3,4′-bipyridine trifluoroacetate salt]",
≤ 50,≤ 300,≤ 50,"Cc1nc(-c2cc(-c3cncc(S(C)(=O)=O)c3)ccn2)[nH]c1C [Example 108, 2′-(4,5-Dimethyl-1H-imidazol-2-yl)-5-(methylsulfonyl)-3,4′-bipyridine trifluoroacetate salt]",
≤ 100,300 to 1000,≤ 50,"Cc1nc(-c2cc(-c3cncc(C(=O)N(C)CC4(CO)CC4)c3)ccn2)[nH]c1C [Example 205, 2′-(4,5-Dimethyl-1H-imidazol-2-yl)-N-{[1-(hydroxymethyl)cyclopropyl]methyl}-N-methyl-3,4′-bipyridine-5-carboxamide trifluoroacetate salt]",
≤ 100,300 to 1000,≤ 50,"Cc1nc(-c2cc(-c3cncc(N4CC[C@@H](O)C4)c3)ccn2)[nH]c1C [Example 231, (3R)-1-[2′-(4,5-Dimethyl-1H-imidazol-2-yl)-3,4′-bipyridin-5-yl]pyrrolidin-3-ol]",
≤ 50,300 to 1000,≤ 50,"Cc1[nH]c(-c2cc(-c3cncc(N4CCOCC4)c3)ccn2)nc1C(=O)NC(C)C [Example 268, N-Isopropyl-5-methyl-2-(5-morpholin-4-yl-3,4′-bipyridin-2′-yl)-1H-imidazole-4-carboxamide trifluoroacetate salt]",
≤ 500,1000 to 5000,≤ 50,"Cc1nc(-c2cc(-c3cncc(C(=O)NC4CCOCC4)c3)ccn2)[nH]c1C [Example 160, 2′-(4,5-Dimethyl-1H-imidazol-2-yl)-N-(tetrahydro-2H-pyran-4-yl)-3,4′-bipyridine-5-carboxamide trifluoroacetate salt]",
≤ 50,≤ 300,≤ 50,"Cc1[nH]c(-c2cc(-c3cncc(S(C)(=O)=O)c3)ccn2)nc1C(=O)NC1CCCC1 [Example 243, N-Cyclopentyl-5-methyl-2-[5-(methylsulfonyl)-3,4′-bipyridin-2′-yl]-1H-imidazole-4-carboxamide]",

# Continued, compound first:
SMILES,IC50 [1] [nM],IC50 ([2]; Homo sapiens) [nM],IC50 [3] [nM],IC50 [2] [nM]
"Cc1[nH]c(-c2cc(-c3cncc(N4CCOCC4)c3)ccn2)nc1C(=O)N1CC(NC(=O)OC(C)(C)C)C1 [Example 264, tert-Butyl (1-{[5-methyl-2-(5-morpholin-4-yl-3,4′-bipyridin-2′-yl)-1H-imidazol-4-yl]carbonyl}azetidin-3-yl)carbamate]",≤ 50,1000 to 5000,≤ 100,
"Cc1[nH]c(-c2cc(-c3cncc(N4CCOCC4)c3)ccn2)nc1C(=O)N1CC(C(F)(F)F)C1 [Example 262, 2′-(5-Methyl-4-{[3-(trifluoromethyl)azetidin-1-yl]carbonyl}-1H-imidazol-2-yl)-5-morpholin-4-yl-3,4′-bipyridine]",≤ 50,300 to 1000,≤ 50,
"CNC(=O)c1nc(-c2cc(-c3cncc(S(C)(=O)=O)c3)ccn2)[nH]c1C [Example 250, N,5-Dimethyl-2-[5-(methylsulfonyl)-3,4′-bipyridin-2′-yl]-lH-imidazole-4-carboxamide trifluoroacetate salt]",≤ 50,,≤ 50,300 to 1000
"CS(=O)(=O)c1cncc(-c2ccnc(-c3ncc(C4CCC4)[nH]3)c2)c1 [Example 113, 2′-(5-Cyclobutyl-1H-imidazol-2-yl)-5-(methylsulfonyl)-3,4′-bipyridine trifluoroacetate salt]",≤ 50,≤ 300,≤ 50,
"Cc1[nH]c(-c2cc(-c3cncc(S(C)(=O)=O)c3)ccn2)nc1C(=O)O [Example 119, 5-Methyl-2-(5-(methylsulfonyl)-3,4′-bipyridin-2′-yl)-1H-imidazole-4-carboxylic acid trifluoroacetate salt]",> 500,> 5000,≤ 50,
"COc1cncc(-c2ccnc(-c3ncc(C(C)(C)C)[nH]3)c2)c1 [Example 88, 2′-(5-tert-Butyl-1H-imidazol-2-yl)-5-methoxy-3,4′-bipyridine trifluoroacetate salt]",≤ 50,> 5000,≤ 500,
"COc1cncc(-c2ccnc(-c3nnc(Nc4ccccc4)[nH]3)c2)c1 [Example 70, 5-(5-Methoxy-3,4′-bipyridin-2′-yl)-N-phenyl-4H-1,2,4-triazol-3-amine trifluoroacetate salt]",≤ 500,> 5000,≤ 500,
"c1cc(-c2cncc(N3CCOCC3)c2)cc(-c2ncc(C3CC3)[nH]2)n1 [Example 102, 4-(2′-(5-Cyclopropyl-1H-imidazol-2-yl)-3,4′-bipyridin-5-yl)morpholine trifluoroacetate salt]",≤ 50,300 to 1000,≤ 100,
"Nc1cncc(-c2ccnc(-c3ncc(-c4ccccc4)[nH]3)c2)c1 [Example 127, 2′-(5-Phenyl-1H-imidazol-2-yl)-3,4′-bipyridin-5-amine Trifluoroacetate Salt]",≤ 50,1000 to 5000,≤ 50,
"Cc1[nH]c(-c2cc(-c3cncc(N4CCOCC4)c3)ccn2)nc1C(=O)NC1CCSCC1 [Example 281, 5-Methyl-2-(5-morpholin-4-yl-3,4′-bipyridin-2′-yl)-N-(tetrahydro-2H-thiopyran-4-yl)-1H-imidazole-4-carboxamide trifluoroacetate salt]",≤ 50,≤ 300,≤ 50,
